From US10544103B2, “5-HT2 antagonists” (ANAMAR AB, priority 2015, dated 2020)

Key:
5-HT2B receptor [1] = biological target: T1, 5-HT2B receptor (Homo sapiens, UniProt P41595); assay: 5-HT2B receptor binding, 3H-LSD ligand displacement assay; conditions: for inhibition at 0.1 µM: 0.1 uM compound; for inhibition at 0.001 µM: 0.001 uM compound; for inhibition at 0.01 µM: 0.01 uM compound
T1 construct: host or cells: CHO-K1
Experimental: 5-HT2B receptor binding (performed at Eurofins Panlabs Taiwan, Ltd.) to human receptor protein expressed in CHO-K1 cells was determined in a ligand displacement assay using ^3H-lysergic acid diethylamide (LSD) as radioligand and ketanserine as a standard reference compound. Data is presented as % displacement of radioligand at indicated compound concentrations, see Table 1 and Table 2.

5-HT2B receptor [2] = biological target: T1, 5-HT2B receptor; assay: 5-HT2B receptor antagonism, inhibition of 5-HT stimulated IP-1 accumulation (HTRF) in CHO-K1 cells; assay type: cell-based; conditions: % inhibition of 5-HT (5 nM) induced effect
Experimental: (§1) 5-HT2B receptor antagonism (performed at Eurofins Panlabs Taiwan, Ltd.) was determined in CHO-K1 cells expressing human receptor protein as inhibition of 5-HT (5 nM) stimulated IP-1 accumulation measured by HTRF quantitation. SB 206553 was used as a standard reference compound. The antagonistic response is expressed as % inhibition of the 5-HT induced effect.

5-HT2B receptor [3] = biological target: T1, 5-HT2B receptor; assay: 5-HT2B receptor agonism, IP-1 accumulation in CHO-K1 cells without prior 5-HT stimulation; assay type: cell-based; conditions: % of IP-1 accumulation induced by 5-HT (1 uM)
Experimental: as §1
5-HT2B receptor agonism (performed at Eurofins Panlabs Taiwan, Ltd.) was determined in the same model as described above in Ex. 117. without prior stimulation with 5-HT. The agonistic response is expressed as % of the IP-1 accumulation induced by 5-HT (1 uM) stimulation.

T1 sequence (P41595 whole entry): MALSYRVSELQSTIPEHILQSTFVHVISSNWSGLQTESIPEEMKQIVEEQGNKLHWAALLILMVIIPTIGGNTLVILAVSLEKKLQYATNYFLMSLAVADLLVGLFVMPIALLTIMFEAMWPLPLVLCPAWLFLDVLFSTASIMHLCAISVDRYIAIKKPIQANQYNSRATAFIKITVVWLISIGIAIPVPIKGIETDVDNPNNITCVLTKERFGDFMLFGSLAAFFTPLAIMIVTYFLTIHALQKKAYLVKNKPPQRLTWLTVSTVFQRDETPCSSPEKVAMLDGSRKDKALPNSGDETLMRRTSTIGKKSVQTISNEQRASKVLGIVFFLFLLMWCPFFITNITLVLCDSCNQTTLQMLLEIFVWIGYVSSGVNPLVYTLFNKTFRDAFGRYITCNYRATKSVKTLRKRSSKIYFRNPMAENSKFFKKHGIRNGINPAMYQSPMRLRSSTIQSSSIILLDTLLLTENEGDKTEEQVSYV

Row | Molecule | inhibition at 0.1 µM (5-HT2B receptor [1]) | inhibition at 1 µM (5-HT2B receptor [1]; 1 uM compound) | inhibition at 0.001 µM (5-HT2B receptor [1]) | inhibition at 0.01 µM (5-HT2B receptor [1]) | other results
1 | N=C(NCc1ccccc1)N1CCC(c2ccccc2O)=N1 [Example 22, N-Benzyl-3-(2-hydroxyphenyl)-4,5-dihydro-1H-pyrazole-1-carboximidamide] | 89% | 102% |  |  | inhibition at 0.001 µM (5-HT2B receptor [2]): 14%; inhibition at 0.01 µM (5-HT2B receptor [2]): 28%; inhibition at 0.1 µM (5-HT2B receptor [2]): 88%; inhibition at 1 µM (5-HT2B receptor [2]): 108%; inhibition at 10 µM (5-HT2B receptor [2]): 110%; activation at 0.001 µM (5-HT2B receptor [3]): -5%; activation at 0.01 µM (5-HT2B receptor [3]): -10%; activation at 0.1 µM (5-HT2B receptor [3]): -1%; activation at 1 µM (5-HT2B receptor [3]): -3%; activation at 10 µM (5-HT2B receptor [3]): -2%
2 | C[C@@H]1CN(C(=N)N)N=C1c1cccc(Cl)c1O (single isomer, unassigned) [Example 73, (R)*-3-(3-chloro-2-hydroxyphenyl)-4-methyl-4,5-dihydro-1H-pyrazole-1-carboximidamide] | 99% |  | 49% | 83% | inhibition at 0.0001 µM (5-HT2B receptor [2]; 0.0001 uM): 29%; inhibition at 0.001 µM (5-HT2B receptor [2]): 87%; inhibition at 0.01 µM (5-HT2B receptor [2]): 97%; inhibition at 0.1 µM (5-HT2B receptor [2]): 97%; inhibition at 1 µM (5-HT2B receptor [2]): 98%; activation at 0.0001 µM (5-HT2B receptor [3]; 0.0001 uM): 3%; activation at 0.001 µM (5-HT2B receptor [3]): 4%; activation at 0.01 µM (5-HT2B receptor [3]): 3%; activation at 0.1 µM (5-HT2B receptor [3]): 3%
3 | N=C(N)N1CCC(c2cccc3ccccc23)=N1 [Example 9, 3-(Naphthalen-1-yl)-4,5-dihydro-1H-pyrazole-1-carboximidamide] | 81% | 99% |  |  | inhibition at 0.001 µM (5-HT2B receptor [2]): 6%; inhibition at 0.01 µM (5-HT2B receptor [2]): 20%; inhibition at 0.1 µM (5-HT2B receptor [2]): 76%; inhibition at 1 µM (5-HT2B receptor [2]): 103%; inhibition at 10 µM (5-HT2B receptor [2]): 116%; activation at 0.001 µM (5-HT2B receptor [3]): -3%; activation at 0.01 µM (5-HT2B receptor [3]): -8%; activation at 0.1 µM (5-HT2B receptor [3]): -8%; activation at 1 µM (5-HT2B receptor [3]): -13%; activation at 10 µM (5-HT2B receptor [3]): -5%
4 | CC1CC(c2ccccc2Cl)=NN1C(=N)N (centres unmarked) [Example 25, 3-(2-Chlorophenyl)-5-methyl-4,5-dihydro-1H-pyrazole-1-carboximidamide] | 54% | 91% |  |  | 
5 | CC1CN(C(=N)NCC(F)(F)C(F)(F)C(F)(F)F)N=C1c1ccccc1O (centres unmarked) [Example 93, N-(2,2,3,3,4,4,4-Heptafluorobutyl)-3-(2-hydroxyphenyl)-4-methyl-4,5-dihydro-1H-pyrazole-1-carboximidamide] | 98% |  | 21% | 80% | 
6 | CC1CN(C(=N)NC2CC2)N=C1c1cccc(Cl)c1O (centres unmarked) [Example 87, 3-(3-Chloro-2-hydroxyphenyl)-N-cyclopropyl-4-methyl-4,5-dihydro-1H-pyrazole-1-carboximidamide] | 100% |  | 24% | 84% | 
7 | (R)-3-(2-Hydroxyphenyl)-4-methyl-4,5-dihydro-1H-pyrazole-1-carboximidamide [Example 36] |  |  |  |  | 5-HT2B receptor binding (% displacement) (5-HT2B receptor [1]; 1 uM compound): 90%; 5-HT2B receptor binding (% displacement) (5-HT2B receptor [1]; 10 uM compound): 99%
8 | COc1cccc(Cl)c1C1=NN(C(=N)N)CC1 [Example 33, 3-(2-Chloro-6-methoxyphenyl)-4,5-dihydro-1H-pyrazole-1-carboximidamide] | 5% | 37% |  |  | 
9 | N=C(N)N1CCC(c2ccccc2C(F)(F)F)=N1 [Example 13, 3-(2-(Trifluoromethyl)phenyl)-4,5-dihydro-1H-pyrazole-1-carboximidamide] | 34% | 82% |  |  | 
10 | CC1CC(c2c(F)cccc2F)=NN1C(=N)N (centres unmarked) [Example 26, 3-(2,6-Difluorophenyl)-5-methyl-4,5-dihydro-1H-pyrazole-1-carboximidamide] | 7% | 55% |  |  | 
11 | CCCCNC(=N)N1CC(C)C(c2cccc(Cl)c2O)=N1 (centres unmarked) [Example 79, N-Butyl-3-(3-chloro-2-hydroxyphenyl)-4-methyl-4,5-dihydro-1H-pyrazole-1-carboximidamide] | 94% |  | 79% | 91% | 
12 | CCCCNC(=N)N1CC(C)C(c2cccc(Cl)c2OC)=N1 (centres unmarked) [Example 78, N-butyl-3-(3-chloro-2-methoxyphenyl)-4-methyl-4,5-dihydro-1H-pyrazole-1-carboximidamide] | 98% |  | 49% | 85% | 
13 | CC1CN(C(=N)N[C@@H](C)c2ccccc2)N=C1c1ccccc1O (stereo partly drawn) [Example 64, 3-(2-Hydroxyphenyl)-4-methyl-N—((S)-1-phenylethyl)-4,5-dihydro-1H-pyrazole-1-carboximidamide] |  |  | 23% | 43% | 
14 | COc1ccc(C2=NN(C(=N)N)CC2C)c(OC)c1 (centres unmarked) [Example 66, 3-(2,4-Dimethoxyphenyl)-4-methyl-4,5-dihydro-1H-pyrazole-1-carboximidamide] | 12% | 41% |  | 5% | 
15 | N=C(N)N1CCC(c2c(O)cccc2Cl)=N1 [Example 34, 3-(2-Chloro-6-hydroxyphenyl)-4,5-dihydro-1H-pyrazole-1-carboximidamide] | 23% | 52% |  |  | 
16 | N=C(N)N1CCC(c2cc(F)ccc2F)=N1 [Example 7, 3-(2,5-Difluorophenyl)-4,5-dihydro-1H-pyrazole-1-carboximidamide] |  | 47% |  |  | inhibition at 10 µM (5-HT2B receptor [1]; 10 uM compound): 94%
17 | CC1CN(C(=N)NO)N=C1c1ccccc1O (centres unmarked) [Example 44, N-Hydroxy-3-(2-hydroxyphenyl)-4-methyl-4,5-dihydro-1H-pyrazole-1-carboximidamide] | 85% | 94% | 12% | 30% | 
18 | COc1c(Cl)cccc1C1=NN(C(=N)Nc2ccc(C(F)(F)F)cc2)CC1C (centres unmarked) [Example 112, 3-(3-Chloro-2-methoxyphenyl)-4-methyl-N-(4-(trifluoromethyl)phenyl)-4,5-dihydro-1H-pyrazole-1-carboximidamide] | 97% |  | 1% | 77% | 
19 | CC1(C)CN(C(=N)N)N=C1c1ccccc1O [Example 32, 3-(2-Hydroxyphenyl)-4,4-dimethyl-4,5-dihydro-1H-pyrazole-1-carboximidamide] | 28% | 79% |  |  | 
20 | CC1CC(c2cccc3ccccc23)=NN1C(=N)N (centres unmarked) [Example 23, 5-methyl-3-(naphthalen-1-yl)-4,5-dihydro-1H-pyrazole-1-carboximidamide] | 68% | 97% |  |  | 
21 | CC1CN(C(=N)N)N=C1c1cccc(Cl)c1O (centres unmarked) [Example 54, 3-(3-Chloro-2-hydroxyphenyl)-4-methyl-4,5-dihydro-1H-pyrazole-1-carboximidamide] | 95% | 101% |  | 81% | 
22 | COc1ccccc1C1=NN(C(=N)N)CC1 [Example 1, 3-(2-Methoxyphenyl)-4,5-dihydro-1H-pyrazole-1-carboximidamide] |  |  |  |  | inhibition at 0.01 µM (5-HT2B receptor [2]): 2%; inhibition at 0.1 µM (5-HT2B receptor [2]): 0%; inhibition at 1 µM (5-HT2B receptor [2]): 72%; inhibition at 10 µM (5-HT2B receptor [2]): 107%; activation at 0.01 µM (5-HT2B receptor [3]): -1%; activation at 0.1 µM (5-HT2B receptor [3]): -8%; activation at 1 µM (5-HT2B receptor [3]): -5%; activation at 10 µM (5-HT2B receptor [3]): -1%
